Experimental data: patent publication US12404232B2, “Compounds and compositions for intracellular delivery of therapeutic agents” (ModernaTX, Inc., priority 2015, dated 2025)

Key:
mice = assay: Luc expression (bioluminescence, total flux) after intravenous administration to mice; assay type: in vivo; details: for 6 h Lipid/MC3 G.M. Luc Expression / AUC (h*p/s): i.v. administration; for 6 h Lipid/MC3 G.M. Luc Expression: geometric mean; for AUC (h*p/s): total Luc flux (Table 3C); for AUC (p/s*h): Luc total flux (Table 3D)
Description: In order to monitor how effectively various nanoparticle compositions deliver therapeutic and/or prophylactics to targeted cells, different nanoparticle compositions including a particular therapeutic and/or prophylactic (for example, a modified or naturally occurring RNA such as an mRNA) are prepared and administered to rodent populations. Mice are intravenously, intramuscularly, intraarterially, or intratumorally administered a single dose including a nanoparticle composition with a formulation such as those provided in Example 3. In some instances, mice may be made to inhale doses. Dose sizes may range from 0.001 mg/kg to 10 mg/kg, where 10 mg/kg describes a dose including 10 mg of a therapeutic and/or prophylactic in a nanoparticle composition for each 1 kg of body mass of the mouse. A control composition including PBS may also be employed.
Upon administration of nanoparticle compositions to mice, dose delivery profiles, dose responses, and toxicity of particular formulations and doses thereof can be measured by enzyme-linked immunosorbent assays (ELISA), bioluminescent imaging, or other methods. For nanoparticle compositions including mRNA, time courses of protein expression can also be evaluated. Samples collected from the rodents for evaluation may include blood, sera, and tissue (for example, muscle tissue from the site of an intramuscular injection and internal tissue); sample collection may involve sacrifice of the animals.
The efficacy of the nanoparticle compositions presented in Table 1A was evaluated with a bioluminescence study. Formulations were administered intravenously to mice (n=6) at a dosage of 0.5 mg/kg (mpk) and bioluminescence measured at 3, 6, and 24 hour time points. The standard MC3 formulation and, in some instances, a control (e.g., a PBS control) were evaluated for comparison. […] In general, flux decreased as time progressed to less than 10% of the initial flux.
The total flux (measured by area under the curve, AUC) induced by administration of a formulation including a given lipid relative to that induced by administration of a formulation including MC3 was also measured for several lipids.
The tolerability and efficacy of nanoparticle compositions to non-human primates was also investigated using sample formulations including Compounds 18, 25, 26, and 48 and MC3 to determine if these compounds are differentiated in terms of protein expression. The formulations were prepared according to the standard MC3 formulation described above and included an hEPO mRNA. Table 30 includes details of the compositions tested, while Table 31 summarizes the relative expression of Luc and hEPO mRNA in mice and rats. Expression was measured 6 hours after administration.

[1] = Particle size and polydispersity index of nanoparticle compositions (Zetasizer Nano ZS); assay type: physicochemical
From the text: Nanoparticle compositions may be characterized by a variety of methods. For example, microscopy (e.g., transmission electron microscopy or scanning electron microscopy) may be used to examine the morphology and size distribution of a nanoparticle composition. Dynamic light scattering or potentiometry (e.g., potentiometric titrations) may be used to measure zeta potentials. Dynamic light scattering may also be utilized to determine particle sizes. Instruments such as the Zetasizer Nano ZS (Malvern Instruments Ltd, Malvern, Worcestershire, UK) may also be used to measure multiple characteristics of a nanoparticle composition, such as particle size, polydispersity index, and zeta potential.
A Zetasizer Nano ZS (Malvern Instruments Ltd, Malvern, Worcestershire, UK) can be used to determine the particle size, the polydispersity index (PDI) and the zeta potential of the nanoparticle compositions in 1×PBS in determining particle size and 15 mM PBS in determining zeta potential.
Initial studies were performed to compare the delivery efficiency of nanoparticle compositions including various compounds according to Formula (I), (IA), (II), (IIa), (IIb), (IIc), (IId) or (IIe). The cationic lipid MC3 is a current standard in the art. Accordingly, the standard MC3 formulation including about 50 mol % MC3, about 10 mol % DSPC, about 38.5 mol % cholesterol, and about 1.5 mol % PEG-DMG was used as a basis for this study. Nanoparticle compositions including DSPC as a phospholipid, cholesterol as a structural lipid, PEG-DMG as a PEG lipid, an RNA, and a compound according to Formula (I), (IA), (II), (IIa), (IIb), (IIc), (IId) or (IIe) selected from Compounds 1-159, 168-170, and 173-175 were prepared according to or via methods similar to those described in Examples 1 and 2. The ratios of the lipids were 50:10:38.5:1.5 mol % for the lipid according to Formula (I), (IA), (II), (IIa), (IIb), (IIc), (IId) or (IIe):DSPC:cholesterol:PEG-DMG. The RNA used was an mRNA encoding G5 luciferase (Luc) or G5 hEPO. Tables 1A-1B summarize the content and characteristics of the formulations. […]

Compound | 6 h Lipid/MC3 G.M. Luc Expression (mice) | AUC (h*p/s) (mice) | AUC (p/s*h) (mice) | also measured
CCCCCCCCC(CCCCCCCC)OC(=O)CCCCCCCN(CCO)CCCCCCCC(=O)OC1CCC(CCCCC)CC1 (stereo not drawn) [Compound 66, Heptadecan-9-yl 8-((2-hydroxyethyl)(8-oxo-8-((4-pentylcyclohexyl)oxy)octyl)amino)octanoate] | 5.23 | 6.76E+11 |  | 
CCCCCCCCCOC(=O)CCCCCCCN(CCO)CCCCCCCOP(=O)(OCCCCCCCC)OCCCCCCCC [Compound 131, Nonyl 8-((7-((bis(octyloxy)phosphoryl)oxy)heptyl)(2-hydroxyethyl)amino)octanoate] | 1.27 | 9.29E+10 |  | 
CCCCCCCCCOC(=O)CCCCCCCN(CCCCCCCC(=O)OC(CCCCCCCC)CCCCCCCC)CCN1CCN(C)CC1 [Compound 101, Heptadecan-9-yl 8-((2-(4-methylpiperazin-1-yl)ethyl)(8-(nonyloxy)-8-oxooctyl)amino)octanoate] | 0.011 | 1.8E+09 |  | 
CCCCCCCCCC(=O)OCCCCCCCN(CCO)CCCCCCCC(=O)OC(CCCCCCCC)CCCCCCCC [Compound 96, 7-((8-(Heptadecan-9-yloxy)-8-oxooctyl)(2-hydroxyethyl)amino)heptyl decanoate] |  |  | 1.209E+012 | 
CCCCCCCCOP(=O)(OCCCCCCCC)OCCCCCCCN(CCO)CCCCCCCC(=O)OC(C)CCCCCCCC (stereo not drawn) [Compound 132, Decan-2-yl 8-((7-((bis(octyloxy)phosphoryl)oxy)heptyl)(2-hydroxyethyl)amino)octanoate] | 0.112 | 1.75E+10 |  | 
CCCCCCCCC(C)OC(=O)CCCCCCCN(CCO)CCCCCCCOC(=O)C(CCCCCCCC)CCCCCCCC (stereo not drawn) [Compound 135, 7-((8-(Decan-2-yloxy)-8-oxooctyl)(2-hydroxyethyl)amino)heptyl 2-octyldecanoate] | 10.5 | 1.25E+12 |  | 
CCCCCCCCC(CCCCCCCC)OC(=O)CCCCCCCN(CCO)CCCCCCCC(=O)N(C)CCCCCCCC [Compound 145, Heptadecan-9-yl 8-((2-hydroxyethyl)(8-(methyl(octyl)amino)-8-oxooctyl)amino)octanoate] | 0.979 | 8.1E+10 |  | 
CCCCCCCCCOC(=O)CCCCCCCN(CCO)CCCCCCCCCC(=O)OC(CCCCCC)CCCCCC [Compound 147, Tridecan-7-yl 10-((2-hydroxyethyl)(8-(nonyloxy)-8-oxooctyl)amino)decanoate] | 8.13 | 5.63E+11 |  | 
CCCCCCCCCOC(=O)CCCCCCCN(CCO)CCCCCCCC(=O)OC(C)(C)C [Compound 158, tert-Butyl 8-((2-hydroxyethyl)(8-(nonyloxy)-8-oxooctyl)amino)octanoate] |  |  | 1.211E+007 | 
CCCCCCCCCOC(=O)CCCCCCCN(CCCCCCCC(=O)OC(CCCCCCCC)CCCCCCCC)C(CO)CO [Compound 156, Heptadecan-9-yl 8-((1,3-dihydroxypropan-2-yl)(8-(nonyloxy)-8-oxooctyl)amino)octanoate] |  |  | 1.170E+011 | PDI ([1]; nanoparticle composition 50:10:38.5:1.5 mol % (Table 1A)): 0.072; Size (nm) ([1]; nanoparticle composition lipid:DSPC:cholesterol:PEG-DMG 50:10:38.5:1.5 mol %, mRNA encoding Luc or hEPO (Table 1A)): 74.3 nm
CCCCCCCCC(CCCCCC)C(=O)OCCCCCCCCCN(CCO)CCCCCCCCCOC(=O)C(CCCCCC)CCCCCCCC (stereo not drawn) [Compound 133, ((2-Hydroxyethyl)azanediyl)bis(nonane-9,1-diyl)bis(2-hexyldecanoate)] | 4.18 | 3.62E+11 |  | 
CCCCCCCCCOC(=O)CCCCCCCN(CCCCCCCC(=O)OC(CCCCCCCC)CCCCCCCC)CCOCCO [Compound 154, Heptadecan-9-yl 8-((2-(2-hydroxyethoxy)ethyl)(8-(nonyloxy)-8-oxooctyl)amino)octanoate] |  |  | 5.560E+010 | 
CCCCCCCCCC(=O)OCCCCCCCN(CCO)CCCCCCCOC(=O)C(CCCCCCCC)CCCCCCCC [Compound 151, 7-((7-(Decanoyloxy)heptyl)(2-hydroxyethyl)amino)heptyl 2-octyldecanoate] |  |  | 7.010E+011 | 
CCCCCCCCCOC(=O)CCCCCCCN(CCO)CCN(CCO)CCCCCCCC(=O)OC(CCCCCCCC)CCCCCCCC [Compound 159, Heptadecan-9-yl 8-((2-hydroxyethyl)(2-((2-hydroxyethyl)(8-(nonyloxy)-8-oxooctyl)amino)ethyl)amino)octanoate] |  |  | 1.355E+008 | 
CCCCCCCCCOC(=O)CCCCCCCN(CCO)CCCCCCCCCC(CCCCCCCC)CCCCCCCC [Compound 153, Nonyl 8-((2-hydroxyethyl)(10-octyloctadecyl)amino)octanoate] |  |  | 2.697E+011 | 
CCCCCCCCCOC(=O)CCCCCCCN(CCO)CCCCCCCCCOC(=O)C(CCCCCC)CCCCCCCC (stereo not drawn) [Compound 134, 9-((2-Hydroxyethyl)(8-(nonyloxy)-8-oxooctyl)amino)nonyl 2-hexyldecanoate] | 3.27 | 3.43E+11 |  | 
CCCCCCCCCOC(=O)CCCCCCCN(CCO)CCCCCCC/C=C\C(CCCCCCCC)CCCCCCCC [Compound 152, Nonyl (Z)-8-((2-hydroxyethyl)(10-octyloctadec-8-en-1-yl)amino)octanoate] |  |  | 2.855E+010 | 
CCCCCCCCC(CCCCCCCC)OC(=O)CCCCCCCN(CCO)CCCCCC(=O)N(C)CCCCCCCC [Compound 146, Heptadecan-9-yl 8-((2-hydroxyethyl)(6-(methyl(octyl)amino)-6-oxohexyl)amino)octanoate] | 0.012 | 1.04E+09 |  | 
CCCCCCCCC(CCCCCCCC)OC(=O)CCCCCCCN(C)CCCCCCCCCCCC(=O)OCCCCC [Compound 150, Pentyl 12-((8-(heptadecan-9-yloxy)-8-oxooctyl)(methyl)amino)dodecanoate] |  |  | 2.704E+011 | 
CCCCCCCCC(CCCCCCCC)OC(=O)CCCCCCCN(CCO)CCCCCCCC(=O)OCC(CCCCCCC)OC (stereo not drawn) [Compound 148, Heptadecan-9-yl 8-((2-hydroxyethyl)(8-((2-methoxynonyl)oxy)-8-oxooctyl)amino)octanoate] |  |  | 4.965E+011 | 
CCCCCCCCC(CCCCCCCC)OC(=O)CCCCCCCN(C)CCCCCCCCCC(=O)OCCCCCCC [Compound 149, Heptyl 10-((8-(heptadecan-9-yloxy)-8-oxooctyl)(methyl)amino)decanoate] |  |  | 1.057E+011 | 
